Some results are limits rather than exact numbers.

The melting point is the temperature, or range, at which the solid turns liquid. Turning to `CCCCCCCNC(=O)Nc1ccc(N(C)C)cc1C(=O)NC(C)(C)C1CCN(C(c2ccccc2)c2ccccc2)CC1`, the melting point was determined as 190 °C. Under `O=C(c1ccc(OCC2CC2)c2oc3ccccc3c12)[NH+]([O-])c1c(Cl)cncc1Cl` (centres undefined) stands 263 to 265 °C. In the case of `CCOC(=O)c1ccc(OC(F)F)cc1SC` it was 83 to 85 °C; in that of `c1ccc2c(c1)c1ccccc1n2CCCCCCn1c2ccccc2c2ccccc21`, 124 to 126 °C. `O=c1c2cccc(Cl)c2nc2n1CCCO2` returned a melting point of 207 to 208 °C. For the compound `O=C1C(CCO)Oc2cc([N+](=O)[O-])ccc2N1Cc1cccc([N+](=O)[O-])c1` (centres undefined), the melting point is 157 to 160 °C. In turn, `O=CNCC1Cc2ccccc2Cc2ccccc21` (centres undefined) returned a melting point of 109 to 111 °C. Turning to `CCOC(=O)c1cn(C)c2cc(Cl)sc2c1=O`, the melting point was in the range of 168 to 171 °C. Under `CCOC(=O)CC1C(=O)N(CCc2c[nH]c3cc(C)ccc23)CCN1C(=O)c1ccccc1` (centres undefined) stands 155 °C. With `COc1ccc2c(=O)c(-c3ccc(OCC4CO4)cc3)coc2c1` (centres undefined), the melting point lay in the range of 153 to 154 °C. Take `O=C(Cl)c1ccc(Oc2ccc(Oc3ccccc3)cc2)cc1`: the melting point lay within 85 to 89 °C. In turn, `COc1cc(OC)nc(C(=O)NS(=O)(=O)CC(C)C)n1` came in with a melting point of 128 to 130 °C. `Cc1ccc(S(=O)(=O)NCc2ccccc2)cc1` had a melting point of 115 to 116 °C.

As to `COc1ccc(OC)c2c1C[C@](O)(CC#N)CC21SCCS1`, the melting point lay within 173 to 174 °C. For the compound `Cc1nc(-n2ccc(O)cc2=O)sc1C(=O)NCc1ccncc1`, the melting point was in the range of 275 to 278 °C. Compound `CSC(=Cc1cnn(-c2c(Cl)cc(C(F)(F)F)cc2Cl)n1)S(C)=O` (centres undefined) registered a melting point of 122 to 123 °C. With `CCOC=Nc1sccc1C#N`, the melting point was found to be 38 °C. Compound `Cn1c2c(c3ccccc31)Cc1ccccc1-2` gave a melting point of 152 °C. For `CC(C)c1ccc(NC(=O)C2CCCc3c(OCc4ccccc4)cccc32)cn1` (centres undefined), the melting point is 157 °C. As for `COc1ccc(C(=O)O)c(C)c1C`, the melting point worked out at 214 °C. Take `O=C(O)C1CC(=C2CCN(c3ccccc3)C2=O)c2ccc(Cl)cc2N1` (centres undefined): the melting point was greater than 200 °C.

Take `COc1cccc(OCc2cccc(OCc3ccc4ccccc4n3)c2)c1C(=O)O`: the melting point lay within 149 to 152 °C.

`Cc1noc(C)c1S(=O)(=O)Nc1ccc2c(c1)S(=O)(=O)C=C(c1c(O)c3cc(F)ccc3n(CCC3CC3)c1=O)N2`: the melting point is 150 to 157 °C.

Compound `CCOC(=O)N1CCn2c(nc(-c3ccncn3)cc2=O)C(NC(=O)c2ccc(-c3cnn(C)c3)cc2)C1` (centres undefined) returned a melting point of 265 to 267 °C. With `Cc1cncc2cc(S(N)(=O)=O)oc12`, the melting point was in the range of 180 to 182 °C. Under `COC(=O)CCCc1cccc(NC(=O)[C@@H](CSC(C)=O)Cc2ccccc2)c1` stands 87 to 88.5 °C. `Cc1csc(C)c1C(=O)O` showed a melting point of 164 to 165 °C. In the case of `CN1CCN(C)C1=Nc1ccccc1-c1ccccc1` it was 90 to 91 °C; in that of `CNS(=O)(=O)N1CC2(CCN(C(=O)Nc3nnc(-c4ccccc4)s3)CC2)c2ccccc21`, 230 to 231 °C. Compound `O=S(CCCCCOc1ccc(C2=C(c3ccccc3)CCCc3ccccc32)cc1)CCCC(F)(F)C(F)(F)F` (centres undefined) came in with a melting point of 114 to 116 °C. In the case of `N#Cc1cnn2c(C(F)(F)F)cc(-c3ccccc3F)nc12` it was 165 °C; in that of `CCc1[nH]c(=O)[nH]c1C(O)c1ccncc1` (centres undefined), 234 to 236 °C; in that of `NC(=O)c1ncn2c(-c3cccc(C(F)(F)F)c3)ccnc12`, 239 to 240 °C. In the case of `CN1CCC(N(C)c2nc(Nc3ccc(O)c(Cl)c3)nc(NC3CCCCCC3)n2)CC1` it was 68 °C. In turn, `CC(N)c1ccc2c(c1)N(C(=O)OC(C)(C)C)CCC2` (centres undefined) showed a melting point of 61 to 64 °C. Take `CC(C)(C)C1=CC(=CC#N)C=C(C(C)(C)C)C1=O`: the melting point was in the range of 110 to 111 °C. With `O=c1oc(OCCCCBr)c(Cl)c2ccccc12`, the melting point fell in the range of 75 to 77 °C.

In turn, `CC(=O)N1N=C(c2ccc(N)c(C)c2)c2cc(Cl)ccc2C=C1C` yielded a melting point of 209 to 211 °C. Under `CC(C)(C)OC(=O)c1nn(-c2ccc(F)cc2F)c2c1C1CCC2C1` (centres undefined) stands 97 to 99 °C; under `COc1cccc(-c2nn(Cc3ccccc3)c3ncnc(O)c23)c1`, 183 to 185 °C. Regarding `COc1ccccc1I`, the melting point lay in the range of 44.5 to 46.5 °C. Under `COc1nc2ccccc2cc1NC(=O)N1CCN(c2ccccc2F)CC1` stands 156 to 158 °C; under `O=C(NCCO)C1(c2cccc3nn(Cc4cccc(C(F)(F)F)c4)cc23)C=CC=CN1` (centres undefined), 50 to 51 °C; under `CC(=O)NCC1CN(c2ccc(N3CCN(c4nnc(C)s4)CC3)c(F)c2)C(=O)O1` (centres undefined), 247 to 249 °C. Take `CCCCCC(=O)Nc1ccc2ccn(CCCCCCCC(=O)OC)c2c1`: the melting point is 61 to 63 °C. `CCCCc1oc2ccccc2c1C(=O)Nc1ccc2c(Br)c(OC(Cc3ccccc3)C(=O)OC)ccc2c1` (centres undefined) gave a melting point of 136 to 139 °C. `COC(=O)c1ccc(F)c(Br)c1` came in with a melting point of 29 to 30 °C. Turning to `Cn1ncnc1COc1nc2c(cc1C(C)(C)C)nnn2-c1ccccc1`, the melting point lay within 165 to 167 °C. In turn, `Cc1cc2c(=O)n3cc(C#N)ccc3nc2s1` came in with a melting point of 256 to 258 °C. Compound `Cn1cc(-c2cnc3[nH]c(=O)n(CC4CCOCC4)c3n2)cn1` gave a melting point of 224 to 226 °C. In turn, `CC(C)OC(=O)Cn1c(=O)n(C)c(=O)n(-c2cc(N=c3sc(=O)n4n3CCCCC4)c(F)cc2Cl)c1=O` showed a melting point of 95 to 106 °C. `c1ccc2c(NC3CCC(Nc4nccc5ccccc45)CC3)nccc2c1` (centres undefined) returned a melting point of 278 to 280 °C. Compound `O=C(NC(c1ccccc1)c1ccccc1)c1c[nH]cn1` yielded a melting point of 201 to 202 °C. Regarding `CC(=O)Nc1c(C(=O)c2ccccc2)[nH]c2cccc(F)c12`, the melting point was in the range of 131 to 133 °C.

`COc1ccc2c(c1)cc(C(=O)c1cc3ccccc3n1S(=O)(=O)c1ccccc1)n2S(=O)(=O)c1ccccc1` showed a melting point of 205 °C. In turn, `CC(O)=C(C#N)CC(=O)Nc1ccc(NC(=O)CBr)cc1` yielded a melting point greater than 210 °C. In the case of `COc1cccc(C=C2OC(=O)c3ccccc32)c1` it was 119 to 123 °C; in that of `C=C(C)C(=O)CCCCCCOc1ccc(C(=O)O)cc1`, 81 to 94 °C.

Regarding `CC(=O)c1ccccc1NC(=O)CN1CCN(CCCC=C(c2ccc(F)cc2)c2ccc(F)cc2)C(C(N)=O)C1` (centres undefined), the melting point was determined as 111 °C. Under `CCCNc1nc(-c2ccccc2)c(CCC(=O)OC)s1` stands 67 to 68 °C; under `CCCc1nc(Cl)c(C=O)n1Cc1ccc(-c2ccccc2-c2nnn[nH]2)cc1`, 165 to 167 °C; under `CCCN1CCN(Cc2nc(-c3ccc4c(c3)Nc3ccccc3S4)cs2)CC1`, 189 to 190 °C. Regarding `O=C1N[C@@H](C(=O)NO)C[C@H]1c1ccc(-c2ccc(F)cc2)cc1`, the melting point is 193 to 202 °C.

`CC(C)(C)c1ccc2c(c1)CCC1=C2CCC(=O)N1` gave a melting point of 265 to 268 °C.
